Broadly, the pIC50 is the IC50 on a negative log10 scale, so that one unit is a factor of ten. For orientation: pEC50 means the EC50 on a negative log10 scale, so that one unit is a factor of ten.

Results on five compounds are retold here after ChEMBL document CHEMBL1671630, “Phenotypic characterization of two Ancylostoma caninum isolates with different susceptibilities to the anthelmintic pyrantel” (Antimicrob Agents Chemother, 2008).

Each structure is given as a SMILES string. pEC50, pIC50: −log10 of the molar value.

Holding throughout (type): functional
Assay [1] deals with Ancylostoma caninum. Put plainly: Antiparasitic activity against Ancylostoma caninum isolate PR assessed as compound concentration required to inhibit parasitic contraction by larval arrested morphology assay.
The test system of assay [2] is Ancylostoma caninum. Put plainly: Antiparasitic activity against Ancylostoma caninum isolate NT assessed as compound concentration required to inhibit parasitic contraction by larval arrested morphology assay.
The subject of assay [3] is Ancylostoma caninum. In words: Antiparasitic activity against Ancylostoma caninum isolate NT assessed as concentration of drug required to cause a force of contraction half that of the KCl-induced maximal contraction by force transduction assay.
In assay [4] the test system is Ancylostoma caninum. In words: Antiparasitic activity against Ancylostoma caninum isolate PR assessed as concentration of drug required to cause a force of contraction half that of the KCl-induced maximal contraction by force transduction assay.
Assay [5] relates to Ancylostoma caninum. In words: Ratio of IC50 for Ancylostoma caninum isolate NT to IC50 for Ancylostoma caninum isolate PR by larval motility assay.
Assay [6] concerns Ancylostoma caninum. In words: Antiparasitic activity against Ancylostoma caninum isolate PR assessed as compound concentration required to inhibit parasitic contraction by larval motility assay.
The test system of assay [7] is Ancylostoma caninum. Put plainly: Ratio of IC50 for Ancylostoma caninum isolate NT to IC50 for Ancylostoma caninum isolate PR by larval arrested morphology assay.
Assay [8] concerns Ancylostoma caninum. In words: Ratio of EC50 for Ancylostoma caninum isolate PR to […] by force transduction assay.
Assay [9] concerns Ancylostoma caninum. In words: Antiparasitic activity against Ancylostoma caninum isolate NT assessed as compound concentration required to inhibit parasitic contraction by larval motility assay.

As for `CN1CCCN=C1/C=C/c1cccs1` [PYRANTEL PAMOATE], the pIC50 is 7.18 with Ancylostoma caninum [1] and 8.43 with Ancylostoma caninum [2]. Further, the pEC50 with Ancylostoma caninum [3] is 3.66; with Ancylostoma caninum [4], 3.17.

Regarding `Cl.c1ccc([C@H]2CN3CCSC3=N2)cc1` [LEVAMISOLE HYDROCHLORIDE], the “Ratio IC50” value was 2.7 in the assay with Ancylostoma caninum [5] and 7.2 in the assay on Ancylostoma caninum [7]. In addition, the pIC50 with Ancylostoma caninum [1] is 7.77; in the assay on Ancylostoma caninum [6], 8.40; with Ancylostoma caninum [2], 8.66; in the assay with Ancylostoma caninum [9] it was 8.82. Also, the “Ratio EC50” value in the assay on Ancylostoma caninum [8] stood at 2. The pEC50 is 3.92 in the assay with Ancylostoma caninum [3] and 3.61 in the assay with Ancylostoma caninum [4].

For `C[N+](C)(CCOc1ccccc1)Cc1ccccc1.O=C([O-])c1cc2ccccc2cc1O` [BEPHENIUM HYDROXYNAPHTHOATE], the “Ratio IC50” value with Ancylostoma caninum [5] is listed as 0.45; in the assay with Ancylostoma caninum [7], 0.46. Moreover, the pIC50 in the assay with Ancylostoma caninum [1] was 4.77; in the assay with Ancylostoma caninum [6], 5.07; with Ancylostoma caninum [2], 4.35; in the assay on Ancylostoma caninum [9], 4.72. Besides, the “Ratio EC50” value in the assay with Ancylostoma caninum [8] turned out to be 0.97. In addition, the pEC50 in the assay on Ancylostoma caninum [3] is 2.54; with Ancylostoma caninum [4] it was 2.55.

Regarding `CN1CCCN=C1/C=C/c1cccs1.O=C(O)c1cc2ccccc2c(Cc2c(O)c(C(=O)O)cc3ccccc23)c1O` [PYRANTEL PAMOATE], the “Ratio IC50” value in the assay on Ancylostoma caninum [7] stood at 18.3. Also, the “Ratio EC50” value in the assay on Ancylostoma caninum [8] was found to be 3.1.

Consider `CN1CCC[C@H]1c1cccnc1` [NICOTINE], for which the figures for the “Ratio IC50” value with Ancylostoma caninum [5] and in the assay on Ancylostoma caninum [7] were 0.95 and 1.07, respectively. Besides, the pIC50 in the assay on Ancylostoma caninum [1] is 5.21; in the assay with Ancylostoma caninum [6] it was 5.44; in the assay on Ancylostoma caninum [2], 5.24; in the assay with Ancylostoma caninum [9], 5.43. The “Ratio EC50” value in the assay with Ancylostoma caninum [8] is 2.1. For the same compound, the figures for the pEC50 in the assay with Ancylostoma caninum [3] and with Ancylostoma caninum [4] were 3.03 and 2.71, respectively.
